{"source": "patent US12570709B2", "about": "“Self-assembling peptide amphiphiles displaying a transforming growth factor beta 1 (TGF-ß1) mimetic epitope” (Northwestern University, priority 2021, dated 2026)", "key": {"[1]": {"test": "Transverse-relaxation (T2) NMR spectroscopy of PA assemblies", "assay_type": "physicochemical", "conditions": "backbone PA assemblies", "procedure": "NMR spectra were acquired at 600 MHz on a Brucker Neo system with QCI-F cryoprobe. NMR spectra for PAs were recorded at 25° C. using TFA-d, H2O/D2O in 9/1 ratio (D2O contains 0.05 wt. % 3-(trimethylsilyl) propionic-2,2,3,3-d4 acid, sodium salt) as solvents. Chemical shifts are reported in part per million (ppm). The […] was 15 μs and typical spectra required 32 scans.\nThe spin-spin relaxation rates were measured using the Carr-Purcell-Gill-Meiboom pulse sequence with a delay time of 0.2 ms in a variable loop. The peak intensity data was fit to and exponential in the form:\n[formula] where τ is the length of the delay time, R2 is the spin-spin relaxation rate and b are the baseline.^2 Cell Culture"}, "[2]": {"conditions": "cited from earlier work"}, "[3]": {"test_system": "Smad2 phosphorylation (intracellular TGF-β1 signaling) in human chondrocytes", "test": "Western blot of phosphorylated Smad2 after 4 h treatment", "assay_type": "cell-based", "conditions": "for activation of p-Smad2 with addition of pan-TGF-β-neutralizing antibody 1D11: with vs without 1D11", "procedure": "(§1) For western blot of 4 h PA treatments, cells were seeded in 6-well plates at a density of 600,000 cells/well and cultured for 24 h. […] Cells were then treated with PA in solution for 4 h in vitro. For western blot of 3-day PA treatments, cells were seeded in 6-well plates at a density of 230,000 cells/well and cultured for 24 h. Cells were then treated with PA in solution for 3 days in vitro.\n(§2) Protein was extracted from cells using Halt Protease and Phosphatase Inhibitor Cocktail (Thermo Scientific) and a BCA assay (Thermo Scientific) was performed to determine protein content of each sample. Cell protein was loaded into and separated using a 4-20% SDS-PAGE gel (Bio-Rad). It was then electrotransferred from the gel to a nitrocellulose membrane (Bio-Rad). The membranes were blocked with 10% milk solution (Bio-Rad) for 30 minutes followed by an overnight incubation with primary antibodies at 4° C. The following primary antibodies were used: rabbit anti-pSmad2 (1:1000, Cell Signaling), rabbit anti-Smad2 (1:1000, Cell Signaling), rabbit anti-Sox9 (1:500, Abcam), mouse anti-Aggrecan (1:500, ThermoFisher), rabbit anti-COMP/Cartilage oligomeric matrix protein (1:500, Abcam), mouse anti-Collagen II (1:500, ThermoFisher), and mouse anti-Actin (1:1000, Novus Bio). Membranes were then incubated with their corresponding secondary HRP-conjugated antibodies (1:1000, ThermoFisher). Protein signals were detected using Radiance Bioluminescent ECL substrate (Azure Biosystems). Densitometry analysis, standardized to total receptor content or actin as a control for protein loading, was performed using ImageJ software. For quantification, experimental triplicate samples were analyzed, and two different experiments were conducted."}, "[4]": {"test_system": "collagen II, aggrecan and F-actin in human chondrocytes", "test": "Immunocytochemistry staining and fluorescence intensity analysis after three days", "assay_type": "cell-based", "conditions": "three days in vitro", "procedure": "For immunocytochemistry (ICC), 12-mm glass coverslips were coated with sterile filtered 0.01 mg/mL poly-D-lysine (Sigma-Aldrich) solution and incubated overnight at 37° C. The coverslips were washed three times with sterile water and air-dried for at least 30 minutes. Cells were seeded on coverslips at a density of approximately 3,000 cells/coverslip and cultured for 24 h. Cells were then treated with PA in solution for 3 days in vitro. Following treatment, cells were fixed in 4% paraformaldehyde for 15 minutes at room temperature.\n(§3) Fixed samples were permeabilized and blocked in a solution of 0.1% (v/v) Triton X-100 and 1% normal horse serum (Invitrogen) for 2 hours at room temperature. Samples were incubated with primary antibodies overnight at 4° C. The following primary antibodies were used: rabbit anti-Sox9 (1:500, Abcam), mouse anti-Aggrecan (1:500, ThermoFisher), mouse anti-Collagen II (1:500, ThermoFisher), and mouse anti-Nuclei (1:500, Sigma-Aldrich). The next day, samples were incubated with AlexaFluor 488 secondary antibody, AlexaFluor 555 secondary antibody, Phalloidin AlexaFluor 488, and/or Phalloidin AlexaFluor 633 (1:1000, Invitrogen) for 2-3 h at room temperature. For 2D cell culture, samples were then incubated with DAPI (1:1000, Invitrogen) for 10 minutes at room temperature. If not already on a glass coverslip, samples were mounted with Immu-Mount (Thermo Scientific) and imaged on a Nikon A1R Spectral microscope. Image analysis was performed using ImageJ software."}, "[5]": {"test": "Rheology of PA hydrogels (strain sweep, G′/G″ crossover)", "assay_type": "physicochemical", "conditions": "PA gels, 10 mol % co-assemblies", "procedure": "Gels were made using 2 wt % PA solutions prepared as previously described, using 10 mol % co-assemblies of epitope PA with diluent PA. 12-well chamber slides (Ibidi) were coated with 0.01 mg/mL poly-D-lysine (Sigma-Aldrich) solution and incubated overnight at 37° C. The wells were washed three times with water and air-dried for at least 30 minutes. 120 μL of PA solution was pipetted evenly into the well and gelling solution comprised of 110 mM NaCl, 3 mM KCl, and 25 mM CaCl2 was pipetted dropwise on top of the PA solution. The gels were incubated at 37° C. for 30 minutes, and then excess gelling solution was removed.\nMeasurements were performed on an Anton Paar MCR302 rheometer with a 25 mm parallel-plate fixture. 120 μL of the PA/HA hybrid slurry was placed on the bottom plate and 30 μL of a 50 mM CaCl2/75 mM NaCl gelling solution was placed on the upper fixture. The fixture was lowered to a gap of 0.5 mm for 10 min during which time a 0.1% oscillatory strain was applied with a 10 rad/s angular frequency. The gap height was allowed to vary to keep the normal force at 0 N. Next, a strain sweep was performed at 10 rad/s from 0.1% to 100% strain to measure the strain to break the gel."}, "[6]": {"test_system": "human chondrocytes encapsulated in PA hydrogels", "test": "F-actin ICC and confocal microscopy of chondrocytes encapsulated in PA gels", "assay_type": "cell-based", "conditions": "three days in vitro, equal concentrations of cells encapsulated", "procedure": "as §3\nChondrocytes were trypsinized and resuspended in growth media for counting, and then pelleted and resuspended to 6×10^7 cells/mL in growth media. The cell solution was mixed 1:2 v/v with sterile PA solution prepared at 3 wt % in 30 mM NaCl. For gels also encapsulating rhTGF-β1 protein (R&D Systems), soluble protein was added to PA solutions after thermal annealing. 120 μL of PA/cell solution was mixed thoroughly by pipetting gently and then placed into PDL-coated 12-well chamber slides (Ibidi). Sterile gelling solution, comprised of 110 mM NaCl, 3 mM KCl, and 25 mM CaCl2, was pipetted dropwise on top of the PA/cell solution and the gels were incubated for 30 minutes at 37° C. Following incubation, excess gelling solution was removed and 250 μL of growth media was added to each well. The media was removed after 3 days for LDH viability assays as described above. For ICC, after 3 days of in vitro culture, gels were fixed in 4% paraformaldehyde for 30 minutes at room temperature."}, "[7]": {"test": "Dynamic light scattering of TGF-β1 mimetic peptide", "assay_type": "physicochemical", "conditions": "peptide alone, 100 mol %, 1 wt %, 25° C.", "procedure": "DLS measurements were performed on a Malvern Zetasizer Nano ZSP light scattering spectrometer. The TGF-β1 mimetic peptide alone, without PA, was prepared at 1 wt % as previously described. During the sample measurement, the temperature was kept at 25° C. The sample was equilibrated for 30 seconds before each measurement was taken. The duration of each measurement was 10 seconds, and the measurement angle was 173° backscatter. The attenuator was determined by the instrument automatically, as was the number of accumulations for each run. Each measurement run was repeated 3 times."}, "[8]": {"test_system": "collagen II, COMP, aggrecan and Sox9 in human chondrocytes", "test": "Western blot of ECM proteins after three days treatment", "assay_type": "cell-based", "conditions": "10 μM, three days in vitro", "procedure": "as §1, §2"}}, "note": "Bridge positions count the residues as written; N and C are the ends. Ends that are not written are not given here. I, II: the chains in the order shown. * marks the point of attachment. Palmitoyl = CCCCCCCCCCCCCCCC(=O)*", "data": [{"substance": "C16-AEAE (Palmitoyl-AEAE-OH; SMILES CCCCCCCCCCCCCCCC(=O)N[C@@H](C)C(=O)N[C@@H](CCC(=O)O)C(=O)N[C@@H](C)C(=O)N[C@@H](CCC(=O)O)C(=O)O) [Backbone PA-b]", "values": [{"measurement": "1H spin-spin (T2) relaxation rate of terminal alkyl methyl protons", "setting": "[1]", "value": "20.49 ± 0.58", "unit": "s⁻¹"}]}, {"substance": "rhTGF-β1: native recombinant human TGF-β1 (R&D Systems), positive control", "values": [{"measurement": "half-life in its active form in vivo", "setting": "[2]", "value": "2 to 3", "unit": "min"}, {"measurement": "activation of p-Smad2 with addition of pan-TGF-β-neutralizing antibody 1D11", "setting": "[3]", "value": "effectively neutralized"}, {"measurement": "aggrecan synthesis", "setting": "[4]; 10 μM, ICC", "value": "significantly increased aggrecan synthesis at similar levels"}, {"measurement": "chondrocyte phenotype (F-actin staining)", "setting": "[4]", "value": "maintained healthy chondrocyte phenotypes and prevented hypertrophy"}]}, {"substance": "C16-AAEE (Palmitoyl-AAEE-OH; SMILES CCCCCCCCCCCCCCCC(=O)N[C@@H](C)C(=O)N[C@@H](C)C(=O)N[C@@H](CCC(=O)O)C(=O)N[C@@H](CCC(=O)O)C(=O)O) [Backbone PA-a]", "values": [{"measurement": "G′/G″ crossover % strain", "setting": "[5]", "value": "7.10 ± 1.49", "unit": "%"}, {"measurement": "G′/G″ crossover storage modulus", "setting": "[5]", "value": "0.55 ± 0.13", "unit": "kPa"}, {"measurement": "1H spin-spin (T2) relaxation rate of terminal alkyl methyl protons", "setting": "[1]", "value": "3.67 ± 0.23", "unit": "s⁻¹"}, {"measurement": "cells within the bulk of the gel", "setting": "[6]", "value": "Far fewer cells were visible"}]}, {"substance": "CESPLKRQC (disulfide 1-9 (inferred)) [TGF-β1 mimetic peptide, reference compound]", "values": [{"measurement": "p-Smad2 activation", "setting": "[3]; 50 μM, 4 h, 10 mol % co-assemblies", "value": "no activation"}, {"measurement": "hydrodynamic diameter of micelles", "setting": "[7]", "value": "approximately 2 nm"}, {"measurement": "size of aggregates of micelles", "setting": "[7]", "value": "~200", "unit": "nm"}, {"measurement": "upregulation of collagen II and aggrecan", "setting": "[4]; 10 μM, ICC", "value": "little upregulation of either protein"}, {"measurement": "ECM synthesis (collagen II, COMP, aggrecan, Sox9)", "setting": "[8]", "value": "low activation"}]}, {"substance": "TGF PA-b: backbone PA SEQ ID NO: 8 conjugated to cyclic TGF-β1 mimetic peptide (SEQ ID NO: 1) by a linker; co-assembled with diluent Backbone PA-b (chain Palmitoyl-AEAEK-OH; peptide CESPLKRQC; disulfide II:1-II:9; not fully specified (some residues); also: co-assembled with diluent backbone PA-b)", "values": [{"measurement": "activation of p-Smad2 with addition of pan-TGF-β-neutralizing antibody 1D11", "setting": "[3]", "value": "effectively neutralized"}]}]}
